Test results reported in patent US20180194762A1 (Pharmacyclics LLC, priority 2017, published 2018).
Read-outs that look alike come from different tables or passages of the source.

Experiments:
Format in all cases: biochemical
TEC = molecular target: T1, TEC (Homo sapiens, UniProt P42680); experiment: Inhibition of a panel of kinases (in vitro HotSpot kinase assay, 33P-ATP, 1 μM ATP); settings: for IC50: HotSpot kinase assay, 1 μM ATP; for TEC/Btk: ratio of TEC IC50 to Btk IC50 (selectivity)
T1 sequence (P42680 1-631): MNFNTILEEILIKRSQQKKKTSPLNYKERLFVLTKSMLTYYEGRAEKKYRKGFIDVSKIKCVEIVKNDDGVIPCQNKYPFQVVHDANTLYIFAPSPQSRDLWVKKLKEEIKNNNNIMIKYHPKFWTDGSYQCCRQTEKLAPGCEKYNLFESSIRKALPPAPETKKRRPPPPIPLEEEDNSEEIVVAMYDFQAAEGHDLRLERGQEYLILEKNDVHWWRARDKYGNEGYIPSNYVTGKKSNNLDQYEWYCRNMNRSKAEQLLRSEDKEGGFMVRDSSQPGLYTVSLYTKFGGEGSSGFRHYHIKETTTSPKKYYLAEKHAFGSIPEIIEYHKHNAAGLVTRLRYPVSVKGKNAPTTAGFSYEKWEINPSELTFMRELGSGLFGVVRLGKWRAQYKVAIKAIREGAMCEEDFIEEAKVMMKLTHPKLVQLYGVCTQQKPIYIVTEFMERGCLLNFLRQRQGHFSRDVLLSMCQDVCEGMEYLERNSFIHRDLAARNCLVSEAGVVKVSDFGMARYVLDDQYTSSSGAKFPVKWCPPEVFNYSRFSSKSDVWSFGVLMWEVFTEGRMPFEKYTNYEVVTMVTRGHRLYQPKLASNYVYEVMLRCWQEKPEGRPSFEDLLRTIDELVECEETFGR
Procedure, shortened: (§1)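 Radiometric read-out: 33P transfer to a suitable substrate by each purified enzyme, ATP at 1 μM. Values are degree of inhibition.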

panel of kinases = molecular target: T2, panel of kinases (Homo sapiens, UniProt P51813); experiment: Inhibition of a panel of kinases (in vitro HotSpot kinase assay, 33P-ATP, 1 μM ATP), other kinases; settings: BMX wild-type, read-out: BMX-WT IC50
T2 sequence (P51813 1-675): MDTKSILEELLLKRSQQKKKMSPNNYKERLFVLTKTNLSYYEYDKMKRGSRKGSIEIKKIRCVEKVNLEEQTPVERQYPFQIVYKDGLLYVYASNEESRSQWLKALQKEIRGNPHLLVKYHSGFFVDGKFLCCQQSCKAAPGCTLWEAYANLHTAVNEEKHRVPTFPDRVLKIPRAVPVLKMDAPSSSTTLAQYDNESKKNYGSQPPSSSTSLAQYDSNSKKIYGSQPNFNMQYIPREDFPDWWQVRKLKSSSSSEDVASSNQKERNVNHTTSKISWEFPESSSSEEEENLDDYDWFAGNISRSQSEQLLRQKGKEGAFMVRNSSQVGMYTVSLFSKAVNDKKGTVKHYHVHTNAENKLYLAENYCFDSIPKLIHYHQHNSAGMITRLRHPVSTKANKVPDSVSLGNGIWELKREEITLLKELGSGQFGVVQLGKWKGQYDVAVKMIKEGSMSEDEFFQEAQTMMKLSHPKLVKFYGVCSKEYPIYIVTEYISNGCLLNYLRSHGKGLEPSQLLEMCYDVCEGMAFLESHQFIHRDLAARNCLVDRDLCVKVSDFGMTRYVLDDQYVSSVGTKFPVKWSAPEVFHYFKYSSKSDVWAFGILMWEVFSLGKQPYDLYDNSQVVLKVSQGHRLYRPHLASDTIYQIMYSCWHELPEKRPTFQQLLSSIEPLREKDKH
Procedure, shortened: as §1

Btk = molecular target: T3, Btk (Homo sapiens, UniProt Q06187); experiment: Btk in vitro inhibitory activity (one of Method A TR-FRET, Method B electrophoretic mobility shift, Method C radiometric filter binding)
T3 construct: purified from insect cells as a full-length construct containing a N-terminal 6X-His tag; His6 (N); made in house; host or cells: insect cells (Method C)
T3 sequence (Q06187 whole entry): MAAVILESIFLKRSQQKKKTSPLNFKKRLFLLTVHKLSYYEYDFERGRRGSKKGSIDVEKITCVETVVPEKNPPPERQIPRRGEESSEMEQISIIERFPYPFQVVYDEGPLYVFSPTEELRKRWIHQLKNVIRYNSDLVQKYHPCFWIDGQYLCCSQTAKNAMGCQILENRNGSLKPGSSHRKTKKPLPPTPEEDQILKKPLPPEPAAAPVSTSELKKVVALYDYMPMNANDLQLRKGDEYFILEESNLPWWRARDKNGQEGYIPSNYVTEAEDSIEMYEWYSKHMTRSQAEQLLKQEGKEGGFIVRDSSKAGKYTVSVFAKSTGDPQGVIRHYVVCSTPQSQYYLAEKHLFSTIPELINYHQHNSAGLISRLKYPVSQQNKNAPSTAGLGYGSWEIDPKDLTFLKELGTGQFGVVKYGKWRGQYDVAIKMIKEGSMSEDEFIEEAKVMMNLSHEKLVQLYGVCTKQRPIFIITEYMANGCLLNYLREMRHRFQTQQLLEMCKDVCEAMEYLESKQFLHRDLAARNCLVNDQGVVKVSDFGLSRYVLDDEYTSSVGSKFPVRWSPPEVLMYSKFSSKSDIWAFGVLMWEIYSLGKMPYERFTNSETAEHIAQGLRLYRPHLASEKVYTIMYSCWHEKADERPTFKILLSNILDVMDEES
Procedure, shortened: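 Three alternative formats were used. A radiometric filter-binding read used 8 nM full-length His-BTK with 0.2 mg/mL poly(Glu-Tyr) 4:1 (C); microfluidic separation of 1 μM FAM-peptide by 1 nM BTK gave IC50 from 12-point curves (B); TR-FRET at Km ATP, 0.5 nM Btk, gave Ki(app)-derived IC50 (A).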

[1] = method is one of A, B or C, not stated which, read-out: IC50 values against Btk
[2] = wild-type Btk, read-out: Btk-WT IC50

Row | Structure (SMILES) | IC50 (TEC) | TEC/Btk (TEC) | IC50 (panel of kinases) | IC50 (Btk; [1]) | IC50 (Btk; [2])
1 | C=CC(=O)N[C@H]1CC[C@@H](Nc2n[nH]c3nccc(-c4ccc(CNC(=O)c5noc(C(C)(C)C)n5)c(F)c4)c23)CC1 [Example 154, 5-tert-butyl-N-{[2-fluoro-4-(3-{[(1s,4s)-4-(prop-2-enamido)cyclohexyl]amino}-1H-pyrazolo[3,4-b]pyridin-4-yl)phenyl]methyl}-1,2,4-oxadiazole-3-carboxamide] | 409 nM | 1726 | 229 nM | < 10 nM | 0.237 nM
2 | C=CC(=O)N1CC[C@@H](Nc2n[nH]c3nccc(-c4ccc([C@@H](C)NC(=O)c5noc(C(C)(C)C)n5)cc4)c23)C1 [Example 98, 5-tert-butyl-N-[(1R)-1-[4-(3-{[(3R)-1-(prop-2-enoyl)pyrrolidin-3-yl]amino}-1H-pyrazolo[3,4-b]pyridin-4-yl)phenyl]ethyl]-1,2,4-oxadiazole-3-carboxamide] | 108 nM | 652 | 239 nM | < 10 nM | 0.165 nM
3 | C=CC(=O)N1CC[C@@H](Nc2n[nH]c3nccc(-c4ccc(CNC(=O)c5nnc(C(C)(C)C)o5)c(F)c4)c23)C1 [Example 81, 5-tert-butyl-N-{[2-fluoro-4-(3-{[(3R)-1-(prop-2-enoyl)pyrrolidin-3-yl]amino}-1H-pyrazolo[3,4-b]pyridin-4-yl)phenyl]methyl}-1,3,4-oxadiazole-2-carboxamide] | 131 nM | 577 | 89 nM | < 10 nM | 0.227 nM
4 | CC(C)(C)c1nc(C(=O)NCc2ccc(-c3ccnc4[nH]nc(N[C@@H]5CCNC5)c34)cc2)no1 [Example 174, 5-tert-butyl-N-{[4-(3-{[(3R)-pyrrolidin-3-yl]amino}-1H-pyrazolo[3,4-b]pyridin-4-yl)phenyl]methyl}-1,2,4-oxadiazole-3-carboxamide] | > 10000 nM | >100 | > 10000 nM |  | 32.7 nM
5 | C=CC(=O)N1CC[C@@H](Nc2n[nH]c3nccc(-c4ccc(CNC(=O)c5cnc(C(C)C)o5)c(F)c4)c23)C1 [Example 176, N-{[2-fluoro-4-(3-{[(3R)-1-(prop-2-enoyl)pyrrolidin-3-yl]amino}-1H-pyrazolo[3,4-b]pyridin-4-yl)phenyl]methyl}-2-(propan-2-yl)-1,3-oxazole-5-carboxamide] | 149 nM | 100 | 146 nM | < 10 nM | 1.49 nM
6 | CC(C)(C)n1cc(C(=O)NCc2ccc(-c3ccnc4[nH]nc(N[C@@H]5CCNC5)c34)cc2F)cn1 [Example 76, 1-tert-butyl-N-{[2-fluoro-4-(3-{[(3R)-pyrrolidin-3-yl]amino}-1H-pyrazolo[3,4-b]pyridin-4-yl)phenyl]methyl}-1H-pyrazole-4-carboxamide] | 8720 nM | 171 | 8360 nM |  | 51.1 nM
7 | CC(C)(C)c1cc(C(=O)NCc2ccc(-c3ccnc4[nH]nc(N[C@@H]5CCNC5)c34)cc2F)no1 [Example 63, 5-tert-butyl-N-{[2-fluoro-4-(3-{[(3R)-pyrrolidin-3-yl]amino}-1H-pyrazolo[3,4-b]pyridin-4-yl)phenyl]methyl}-1,2-oxazole-3-carboxamide] | 7860 nM | 771 | > 10000 nM |  | 10.2 nM
8 | CC(=O)N1CC[C@H](Nc2n[nH]c3nccc(-c4ccc(CNC(=O)c5noc(C(C)(C)C)n5)c(F)c4)c23)C1 [Example 92, N-{[4-(3-{[(3S)-1-acetylpyrrolidin-3-yl]amino}-1H-pyrazolo[3,4-b]pyridin-4-yl)-2-fluorophenyl]methyl}-5-tert-butyl-1,2,4-oxadiazole-3-carboxamide] | 6920 nM | 505 | 7600 nM |  | 13.7 nM
9 | C=CC(=O)N1CC[C@@H](Nc2n[nH]c3nccc(-c4ccc(CNC(=O)c5noc(C(C)(C)C)n5)cc4)c23)C1 [Example 175, 5-tert-butyl-N-{[4-(3-{[(3R)-1-(prop-2-enoyl)pyrrolidin-3-yl]amino}-1H-pyrazolo[3,4-b]pyridin-4-yl)phenyl]methyl}-1,2,4-oxadiazole-3-carboxamide] | 55 nM | 289 | 201 nM | < 10 nM | 0.189 nM

Continued, values first:

Row | IC50 (TEC) | TEC/Btk (TEC) | IC50 (panel of kinases) | IC50 (Btk; [1]) | IC50 (Btk; [2]) | Structure (SMILES)
10 | 914 nM |  | 502 nM |  | 4.05 nM | CC(C)c1noc(C(=O)N[C@H](C)c2ccc(-c3ccnc4[nH]nc(N5CCOCC5)c34)cc2)n1 [Example 389, N-[(1R)-1-{4-[3-(morpholin-4-yl)-1H-pyrazolo[3,4-b]pyridin-4-yl]phenyl}ethyl]-3-(propan-2-yl)-1,2,4-oxadiazole-5-carboxamide]
11 | 3080 nM |  | 3820 nM |  | 50.6 nM | C[C@H]1CC[C@@H](Nc2n[nH]c3nccc(-c4ccc(CNC(=O)c5cc(C(C)(C)O)on5)c(F)c4)c23)CN1C(=O)N(C)C [Example 418, (2S,5R)-5-({4-[3-fluoro-4-({[5-(2-hydroxypropan-2-yl)-1,2-oxazole-3-carbonyl]amino}methyl)phenyl]-1H-pyrazolo[3,4-b]pyridin-3-yl}amino)-N,N,2-trimethylpiperidine-1-carboxamide]
12 | 235 nM |  | 1190 nM |  | 0.488 nM | C[C@@H](NC(=O)c1nc(C(C)(C)C)no1)c1ccc(-c2ccnc3[nH]nc(N4CCC(NS(C)(=O)=O)CC4)c23)cc1 [Example 396, 3-tert-butyl-N-{(1R)-1-[4-(3-{4-[(methanesulfonyl)amino]piperidin-1-yl}-1H-pyrazolo[3,4-b]pyridin-4-yl)phenyl]ethyl}-1,2,4-oxadiazole-5-carboxamide]
13 | 45.5 nM |  | 107 nM |  | 0.171 nM | C=CC(=O)N1CC[C@@H](Nc2n[nH]c3nccc(-c4ccc(CNC(=O)c5coc(C(C)(C)C)n5)c(F)c4)c23)C1 [Example 295, 2-tert-butyl-N-{[2-fluoro-4-(3-{[(3R)-1-(prop-2-enoyl)pyrrolidin-3-yl]amino}-1H-pyrazolo[3,4-b]pyridin-4-yl)phenyl]methyl}-1,3-oxazole-4-carboxamide]
14 | 5240 nM | 504 | 6080 nM |  | 10.4 nM | CN(C)C(=O)N1CC[C@@H](Oc2n[nH]c3nccc(-c4ccc(CNC(=O)c5noc(C(C)(C)C)n5)c(F)c4)c23)C1 [Example 282, 5-tert-butyl-N-{[4-(3-{[(3R)-1-(dimethylcarbamoyl)pyrroli-din-3-yl]oxy}-1H-pyrazolo[3,4-b]pyridin-4-yl)-2-fluorophenyl]methyl}-1,2,4-oxadiazole-3-carboxamide]
15 | 47.4 nM |  | 26.5 nM |  | 0.058 nM | C=CC(=O)N[C@@H]1CCN(c2n[nH]c3nccc(-c4ccc(CNC(=O)c5noc(C(C)C)n5)c(F)c4)c23)C1 [Example 367, N-{[2-fluoro-4-(3-{(3R)-3-[(prop-2-enoyl)amino]pyrrolidin-1-yl}-1H-pyrazolo[3,4-b]pyridin-4-yl)phenyl]methyl}-5-(propan-2-yl)-1,2,4-oxadiazole-3-carboxamide]
16 | 7180 nM | 302 | > 10000 nM |  | 23.8 nM | CC(C)(C)c1nc(C(=O)NCc2ccc(-c3ccnc4[nH]nc(N[C@@H]5CCNC5)c34)cc2F)co1 [Example 180, 2-tert-butyl-N-{[2-fluoro-4-(3-{[(3R)-pyrrolidin-3-yl]amino}-1H-pyrazolo[3,4-b]pyridin-4-yl)phenyl]methyl}-1,3-oxazole-4-carboxamide]
